According to paper PMC6736568, “Discovery of Novel Anti-cryptosporidial Activities From Natural Products by in vitro High-Throughput Phenotypic Screening” (Frontiers in Microbiology, 2019):
Read-outs that look alike come from different tables or passages of the source.

Tests used:
Cryptosporidium parvum = assay: qRT-PCR assay of the growth of C. parvum in vitro in HCT-8 host cells (primary and secondary screening, EC50); type: cell-based; details: for Inhibition (%): primary screening at 10 uM; for % Inhibition (3.3 uM): secondary screening at 3.3 uM
[1] = primary screening at 10 uM, treated vs control
[2] = primary screening at 10 uM, from Hs18S ΔCT

Compound	Hs18S ΔCT (HCT-8 host cells (Hs18S); [1])	Inhibition (%) (Cryptosporidium parvum)	Cytotoxicity (%) (HCT-8 host cells (Hs18S); [2])	other results
CC(C)=CCC[C@]1(C)C=Cc2c(O)c3c(c(CC=C(C)C)c2O1)O[C@]12C(=C[C@@H]4C[C@H]1C(C)(C)O[C@@]2(C/C=C(/C)C(=O)O)C4=O)C3=O [GAMBOGIC ACID]				Hs18S ΔCT (HCT-8 host cells (Hs18S); human, 41 h, 10 μM): 10.02; cytotoxicity at 41 h, 10 µM (in vitro; human): 99.9%
C[C@H]1O[C@@H](O[C@H]2[C@@H](O)C[C@H](O[C@H]3[C@@H](O)C[C@H](O[C@H]4CC[C@@]5(C)[C@H](CC[C@@H]6[C@@H]5C[C@@H](O)[C@]5(C)[C@@H](C7=CC(=O)OC7)CC[C@]65O)C4)O[C@@H]3C)O[C@@H]2C)C[C@H](O)[C@@H]1O [DIGOXIN]	14.32			cytotoxicity at 10 µM (in vitro): 100%
C[C@H]1O[C@@H](O[C@H]2[C@@H](O)C[C@H](O[C@H]3[C@@H](O)C[C@H](O[C@H]4CC[C@@]5(C)[C@H](CC[C@@H]6[C@@H]5CC[C@]5(C)[C@@H](C7=CC(=O)OC7)CC[C@]65O)C4)O[C@@H]3C)O[C@@H]2C)C[C@H](O)[C@@H]1O [DIGITOXIN]	13.47			cytotoxicity at 10 µM (in vitro): 100%
CC(=O)O[C@@H]1C[C@@]2(C)[C@H](c3ccoc3)C[C@H]3O[C@]32[C@]2(C)C(=O)C(O)=C3C(C)(C)C(=O)C=C[C@]3(C)[C@@H]12 [ANTHOTHECOL]				Hs18S ΔCT (HCT-8 host cells (Hs18S); human, 41 h, 10 μM): 6.51; cytotoxicity at 41 h, 10 µM (in vitro; human): 98.9%
CO[C@H]1[C@H](O)[C@H](O[C@H]2CC[C@@]3(C=O)[C@H](CC[C@@H]4[C@@H]3CC[C@]3(C)[C@@H](C5=CC(=O)OC5)CC[C@]43O)C2)O[C@@H](C)[C@@H]1O [PERUVOSIDE]	10.85			cytotoxicity at 10 µM (in vitro): 99.9%
CC(=O)O[C@H]1CC[C@@]2(C)[C@H](CC[C@@H]3[C@@H]2CC[C@]2(C)[C@@H](C4=CC(=O)OC4)[C@@H](OC(C)=O)C[C@]32O)C1 [GITOXIGENIN DIACETATE]	8.90			cytotoxicity at 10 µM (in vitro): 99.8%
Cc1cc(O)c2c(c1O)C(=O)c1c(O)cc(C)c(O)c1C2=O [1,4,5,8-TETRAHYDROXY-2,6-DIMETHYLANTHROQUINONE]				Hs18S ΔCT (HCT-8 host cells (Hs18S); human, 41 h, 10 μM): 3.65; cytotoxicity at 41 h, 10 µM (in vitro; human): 92%
C[C@@]12C(=O)OC(=O)[C@]1(C)[C@H]1CC[C@@H]2O1 [CANTHARIDIN]	7.39			cytotoxicity at 10 µM (in vitro): 99.4%
CC(C)=CCc1c2c(c3occ(-c4ccc(O)c(O)c4)c(=O)c3c1O)C=CC(C)(C)O2 [POMIFERIN]				Hs18S ΔCT (HCT-8 host cells (Hs18S); human, 41 h, 10 μM): 6.42; cytotoxicity at 41 h, 10 µM (in vitro; human): 98.8%
C[C@@H]1O[C@@H](O[C@H]2C[C@@H](O)[C@]3(CO)[C@H]4[C@H](O)C[C@]5(C)[C@@H](C6=CC(=O)OC6)CC[C@]5(O)[C@@H]4CC[C@]3(O)C2)[C@H](O)[C@H](O)[C@H]1O [OUABAIN]	11.65			cytotoxicity at 41 h, 10 µM (in vitro): 100%
NCCCC(=O)O [gamma-AMINOBUTYRIC ACID]				Hs18S ΔCT (HCT-8 host cells (Hs18S); human, 41 h, 10 μM): 0.04; cytotoxicity at 41 h, 10 µM (in vitro; human): 2.6%
C[C@]12CC[C@H]3[C@@H](CC[C@]4(O)C[C@@H](O)CC[C@]34C=O)[C@@]1(O)CC[C@@H]2C1=CC(=O)OC1 [STROPHANTHIDIN]	11.98			cytotoxicity at 41 h, 10 µM (in vitro; human): 100%
C[C@@H]1O[C@@H](O[C@H]2CC[C@]3(C=O)[C@H]4CC[C@]5(C)[C@@H](C6=CC(=O)OC6)CC[C@]5(O)[C@@H]4CC[C@]3(O)C2)[C@H](O)[C@H](O)[C@H]1O [CONVALLATOXIN]	10.84			cytotoxicity at 10 µM (in vitro): 99.9%
CC(=O)O[C@H]1C[C@H](O[C@H]2[C@@H](O)C[C@H](O[C@H]3[C@@H](O)C[C@H](O[C@H]4CC[C@@]5(C)[C@H](CC[C@@H]6[C@@H]5C[C@@H](O)[C@]5(C)[C@@H](C7=CC(=O)OC7)CC[C@]65O)C4)O[C@@H]3C)O[C@@H]2C)O[C@H](C)[C@H]1O[C@@H]1O[C@H](CO)[C@@H](O)[C@H](O)[C@H]1O [LANATOSIDE C]	8.93			cytotoxicity at 10 µM (in vitro): 99.8%
CC1=C(O)C(=O)C=C2C1=CC=C1[C@@]2(C)CC[C@@]2(C)[C@@H]3C[C@](C)(C(=O)O)CC[C@]3(C)CC[C@]12C [CELASTROL]	3.82			cytotoxicity at 10 µM (in vitro): 92.9%
CC1CCC23CCC4(C)C5(C)CCC6C(C)(C)C(=O)CCC6(C)C5CCC4(OC2=O)C3C1C (stereo not shown) [3-OXOURSAN (28-13)OLIDE]	6.62			cytotoxicity at 10 µM (in vitro): 99%
CC1(C)C2CC(=O)[C@]3(C)C(CC[C@@]4(C)[C@H](c5ccoc5)OC(=O)C5OC543)[C@@]2(C)[C@@H](O)C[C@H]1O (stereo partly shown)	0.07	69.64	4.7	% Inhibition (3.3 uM) (Cryptosporidium parvum): 3%
CC1(C)C=Cc2c(c3c(c4c(=O)c(-c5ccc(O)cc5)coc24)OC(C)(C)CC3)O1 [ISOOSAJIN]	-0.24	96.83	-18.5	% Inhibition (3.3 uM) (Cryptosporidium parvum): 39%
DEGUELIN(-)	0.60	45.04	34.2	

Compound	Hs18S ΔCT (HCT-8 host cells (Hs18S); [1])	Inhibition (%) (Cryptosporidium parvum)	Cytotoxicity (%) (HCT-8 host cells (Hs18S); [2])	other results
COc1cc([C@@H]2c3cc4c(cc3[C@H](OC(C)=O)[C@H]3COC(=O)[C@H]23)OCO4)cc(OC)c1OC [PODOPHYLLIN ACETATE]	0.58	72.02	33.2	% Inhibition (3.3 uM) (Cryptosporidium parvum): 64%
COc1cc2occ(-c3ccc(OC)c(OC)c3OC)c(=O)c2cc1OC [6,7,2',3',4'-PENTAMETHOXYISOFLAVONE]	-0.38	39.55	-30.1	
CC(=O)NCCc1ccc(O)c(-c2c(O)c(O)c3c(c2O)C(=O)c2c(cc(O)c(C(=O)O)c2C(=O)O)C3=O)c1 [LACCAIC ACID A]		21.81	-6.6	
CC1(C)CC2C1CC[C@]1(C)CCC3C(C(=O)O)CC(=O)O[C@@]32C1 (stereo partly shown) [3-HYDROXY-4-(SUCCIN-2-YL)-CARYOLANE delta-LACTONE]	0.49	51.45	28.8	
CC(=O)OCC1=C(C(=O)O)N2C(=O)[C@@H](N)[C@H]2SC1 [7-AMINOCEPHALOSPORANIC ACID]	0.19	-11.44	12.1	
CASANTHRANOL [CASANTHRANOL [cascaroside A shown]]		50.17		Cytotoxicity (%) (HCT-8 host cells (Hs18S); 10 µM): 15.4%
COC[C@]12CN(C=O)[C@@H]3[C@@H]4[C@H](OC)[C@H]1[C@@]3([C@@H](OC)C[C@H]2O)[C@@H]1C[C@@]2(O)[C@H](OC(=O)c3ccccc3)[C@@H]1[C@]4(OC(C)=O)[C@@H](O)[C@@H]2OC [OXONITINE]	0.05	0.75	3.3	
C=C(C)CCCC(C)CCOC(C)=O (stereo not shown) [RHODINYL ACETATE]	0.17	-15.58	10.9	
COc1cc2c3cc1Oc1cc(ccc1O)C[C@@H]1c4c(cc(OC)c(O)c4Oc4ccc(cc4)C[C@@H]3N(C)CC2)CC[N+]1(C)C.Cl.O.O.O.O.O.[Cl-] [TUBOCURARINE CHLORIDE]	-0.29	37.53	-22.2	
COc1cc(O)c(C(=O)/C=C/c2ccc(OC)c(O)c2)c(OC)c1 [2',3-DIHYDROXY-4,4',6'-TRIMETHOXYCHALCONE]	-0.29	-6.64	-22.2	
COc1ccc(-c2cc(=O)c3c(O)c(OC)c(OC)c(OC)c3o2)cc1OC [DEMETHYLNOBILETIN]	-0.06	91.41	-4.6	% Inhibition (3.3 uM) (Cryptosporidium parvum): 29%
CC1(C)CCC[C@]2(C)[C@H]3CC(=O)O[C@]3(C)CC[C@@H]12 [SCLAREOLIDE]	0.57	26.58	32.7	
N[C@@H](CSCSC[C@H](N)C(=O)O)C(=O)O [DJENKOLIC ACID]	0.00	23.33	0.2	
Cc1c[nH]c2ccccc12 [SKATOLE]	0.30	25.24	18.5	
CYANOCOBALAMIN	-0.32	16.98	-24.5	
CNCC(=O)c1ccc(O)c(O)c1.Cl [ADRENOLONE HYDROCHLORIDE]	-0.22	26.43	-16.6	
CC(=O)OCC(OC(C)=O)C(OC(C)=O)C(OC(C)=O)C(OC(C)=O)C(COC(C)=O)OC(C)=O (stereo not shown) [PERSEITOL HEPTAACETATE]	-0.14	0.17	-10.1	
COC(=O)C1(C)CCCC2(C)c3ccc(O)c(C(C)C)c3CCC12 (stereo not shown) [TOTAROL-19-CARBOXYLIC ACID, METHYL ESTER]	0.37	-12.62	22.4	
C[C@@H](O)[C@H](N)C(=O)O [THREONINE (L)]	-0.26	-20.50	-19.5	
